Source: PubChem BioAssay AID248 (DTP/NCI, 2004)
Values joined by “and” are separate entries in the source; they are usually repeats but may differ in a detail not shown here. Identical values can stand only once. Inconclusive results and toxic doses are left out.

System: L1210 leukemia ip in BDF1 mice, survival T/C
Test: NCI In Vivo Anticancer Drug Screen. Data for tumor model L1210 Leukemia (intraperitoneal) in B6D2F1 (BDF1) mice
Details: endpoint: mean survival time, higher = longer survival
Outline: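 Transplantable tumor model; survival measured in treated vs vehicle control mice. Value = treated/control.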

[1] = dose: 100.0 mg/kg/injection, schedule: Q01DX001 (ip), vehicle: saline
[2] = dose: 200.0 mg/kg/injection, schedule: Q01DX001 (ip), vehicle: saline
[3] = dose: 50.0 mg/kg/injection, schedule: Q01DX009 (ip), vehicle: Klucel (hydroxypropylcellulose) (HPC)
[4] = dose: 100.0 mg/kg/injection, schedule: Q01DX009 (ip), vehicle: Klucel (hydroxypropylcellulose) (HPC)
[5] = dose: 100.0 mg/kg/injection, schedule: Q04DX003 (ip), vehicle: Klucel (hydroxypropylcellulose) (HPC)
[6] = dose: 200.0 mg/kg/injection, schedule: Q04DX003 (ip), vehicle: Klucel (hydroxypropylcellulose) (HPC)
[7] = dose: 200.0 mg/kg/injection, schedule: Q01DX009 (ip), vehicle: Klucel (hydroxypropylcellulose) (HPC)
[8] = dose: 400.0 mg/kg/injection, schedule: Q01DX009 (ip), vehicle: Klucel (hydroxypropylcellulose) (HPC)
[9] = dose: 200.0 mg/kg/injection, schedule: Q04DX002 (ip), vehicle: Klucel (hydroxypropylcellulose) (HPC)
[10] = dose: 400.0 mg/kg/injection, schedule: Q04DX002 (ip), vehicle: Klucel (hydroxypropylcellulose) (HPC)
[11] = dose: 100.0 mg/kg/injection, schedule: Q01DX001 (ip), vehicle: carboxymethylcellulose (CMC)
[12] = dose: 200.0 mg/kg/injection, schedule: Q01DX001 (ip), vehicle: carboxymethylcellulose (CMC)

## ClC(Cl)(Cl)SN1CCOCC1
dose: 50.0 mg/kg/injection, schedule: Q01DX009 (ip), vehicle: saline
  T/C: 106 % of control
dose: 100.0 mg/kg/injection, schedule: Q01DX009 (ip), vehicle: saline
  T/C: 95 % of control
dose: 200.0 mg/kg/injection, schedule: Q01DX009 (ip), vehicle: saline
  T/C: 104 % of control

## CCCN(CCC)CP(=S)(CN(CCC)CCC)CN(CCC)CCC
[1]
  T/C: 92 % of control
[2]
  T/C: 90 % of control

## CCOC(=O)c1cn[nH]c1/N=N/N(C)C
dose: 42.0 mg/kg/injection, schedule: Q01DX009 (ip), vehicle: carboxymethylcellulose (CMC)
  T/C: 113 % of control
dose: 178.0 mg/kg/injection, schedule: Q01DX001 (ip), vehicle: carboxymethylcellulose (CMC)
  T/C: 110 % of control
dose: 267.0 mg/kg/injection, schedule: Q01DX001 (ip), vehicle: carboxymethylcellulose (CMC)
  T/C: 112 % of control

## C=C(Br)CNC(=O)CCC
dose: 5.0 mg/kg/injection, schedule: Q04DX003 (ip), vehicle: saline
  T/C: 92 % of control
dose: 10.0 mg/kg/injection, schedule: Q04DX003 (ip), vehicle: saline
  T/C: 97 % of control

## CC(=O)C(=Cc1c[nH]c2ccccc12)C(C)=O
dose: 50.0 mg/kg/injection, schedule: Q01DX009 (ip), vehicle: water
  T/C: 98 % of control
dose: 100.0 mg/kg/injection, schedule: Q01DX009 (ip), vehicle: water
  T/C: 112 % of control
dose: 100.0 mg/kg/injection, schedule: Q04DX003 (ip), vehicle: water
  T/C: 106 % of control
dose: 200.0 mg/kg/injection, schedule: Q01DX009 (ip), vehicle: water
  T/C: 98 % of control
dose: 200.0 mg/kg/injection, schedule: Q04DX003 (ip), vehicle: water
  T/C: 103 % of control
dose: 400.0 mg/kg/injection, schedule: Q01DX009 (ip), vehicle: water
  T/C: 95 % of control
dose: 400.0 mg/kg/injection, schedule: Q04DX003 (ip), vehicle: water
  T/C: 104 % of control

## CC(C)=C1C2CCC1C1C(=O)OC(=O)C21 (stereo unspecified)
[3]
  T/C: 95 % of control
dose: 50.0 mg/kg/injection, schedule: Q04DX003 (ip), vehicle: Klucel (hydroxypropylcellulose) (HPC)
  T/C: 102 % of control
dose: 100.0 mg/kg/injection, schedule: Q01DX001 (ip), vehicle: Klucel (hydroxypropylcellulose) (HPC)
  T/C: 98 % of control
[4]
  T/C: 88 % of control
[5]
  T/C: 102 % of control
dose: 200.0 mg/kg/injection, schedule: Q01DX001 (ip), vehicle: Klucel (hydroxypropylcellulose) (HPC)
  T/C: 105 % of control
[6]
  T/C: 100 % of control

## COC1=C[C@]23CCCN2C[C@H](O)c2cc4c(cc2[C@@H]3[C@@H]1O)OCO4
dose: 15.0 mg/kg/injection, schedule: Q01DX009 (ip), vehicle: saline
  T/C: 108 % of control
dose: 30.0 mg/kg/injection, schedule: Q01DX009 (ip), vehicle: saline
  T/C: 104 % of control
dose: 60.0 mg/kg/injection, schedule: Q01DX009 (ip), vehicle: saline
  T/C: 100 % of control

## CC[n+]1ccc(Nc2ccc(/C=C/c3ccc4cc(Nc5cc[n+](CC)cc5)ccc4[n+]3CC)cc2)cc1
dose: 2.5 mg/kg/injection, schedule: Q01DX009 (ip), vehicle: saline
  T/C: 112 % of control and 119 % of control and 120 % of control
dose: 5.0 mg/kg/injection, schedule: Q01DX009 (ip), vehicle: saline
  T/C: 150 % of control
dose: 10.0 mg/kg/injection, schedule: Q01DX009 (ip), vehicle: saline
  T/C: 182 % of control and 209 % of control
dose: 12.5 mg/kg/injection, schedule: Q01DX001 (ip), vehicle: saline
  T/C: 100 % of control
dose: 25.0 mg/kg/injection, schedule: Q01DX001 (ip), vehicle: saline
  T/C: 100 % of control
dose: 50.0 mg/kg/injection, schedule: Q01DX001 (ip), vehicle: saline
  T/C: 112 % of control

## Cc1ccc(NP(=O)(Oc2c(F)c(F)c(F)c(F)c2F)N(CCCl)CCCl)cc1 (stereo unspecified)
dose: 62.5 mg/kg/injection, schedule: Q01DX001 (ip), vehicle: other
  T/C: 100 % of control
dose: 125.0 mg/kg/injection, schedule: Q01DX001 (ip), vehicle: other
  T/C: 112 % of control
dose: 250.0 mg/kg/injection, schedule: Q01DX001 (ip), vehicle: other
  T/C: 106 % of control
dose: 500.0 mg/kg/injection, schedule: Q01DX001 (ip), vehicle: other
  T/C: 108 % of control

## C[n+]1c(-c2cccc3ccccc23)c2cc([N+](=O)[O-])ccc2c2ccccc21
dose: 6.25 mg/kg/injection, schedule: Q01DX009 (ip), vehicle: water
  T/C: 104 % of control
dose: 12.5 mg/kg/injection, schedule: Q01DX009 (ip), vehicle: water
  T/C: 100 % of control
dose: 12.5 mg/kg/injection, schedule: Q04DX003 (ip), vehicle: water
  T/C: 98 % of control
dose: 25.0 mg/kg/injection, schedule: Q04DX003 (ip), vehicle: water
  T/C: 105 % of control
dose: 50.0 mg/kg/injection, schedule: Q04DX003 (ip), vehicle: water
  T/C: 93 % of control

## Nc1ncnc2c1ncn2C1CC(O)C(O)CO1 (stereo unspecified)
[1]
  T/C: 105 % of control
[2]
  T/C: 106 % of control
dose: 400.0 mg/kg/injection, schedule: Q01DX001 (ip), vehicle: saline
  T/C: 105 % of control

## C[C@]12CCCC[C@@H]1CC[C@@H]1[C@@H]2[C@@H](O)C[C@]2(C)[C@@H](O)CC[C@@H]12
dose: 50.0 mg/kg/injection, schedule: Q01DX009 (ip), vehicle: saline with Tween-80
  T/C: 98 % of control
dose: 100.0 mg/kg/injection, schedule: Q01DX009 (ip), vehicle: saline with Tween-80
  T/C: 90 % of control
dose: 200.0 mg/kg/injection, schedule: Q01DX009 (ip), vehicle: saline with Tween-80
  T/C: 95 % of control

## CNC(=S)N/N=C/c1ccc(OC)c(OC)c1OC
[4]
  T/C: 102 % of control
[7]
  T/C: 120 % of control
[8]
  T/C: 98 % of control

## COc1cc(Cl)ccc1NC(=O)Oc1ccc(C=O)cc1OC
dose: 100.0 mg/kg/injection, schedule: Q04DX002 (ip), vehicle: Klucel (hydroxypropylcellulose) (HPC)
  T/C: 101 % of control
[9]
  T/C: 90 % of control
[10]
  T/C: 93 % of control

## CC1=CCCC(C)(C)C1C=C1C(=O)NC(=S)NC1=O (stereo unspecified)
[3]
  T/C: 92 % of control
[4]
  T/C: 98 % of control
[7]
  T/C: 109 % of control

## Cc1cc(=O)oc2ccc(OS(C)(=O)=O)cc12
[3]
  T/C: 90 % of control
[4]
  T/C: 101 % of control
[7]
  T/C: 90 % of control

## CC1(C)COC(c2ccccc2Br)=N1
[4]
  T/C: 107 % of control
[5]
  T/C: 104 % of control and 105 % of control
[7]
  T/C: 104 % of control
[6]
  T/C: 97 % of control and 105 % of control
[8]
  T/C: 93 % of control
dose: 400.0 mg/kg/injection, schedule: Q04DX003 (ip), vehicle: Klucel (hydroxypropylcellulose) (HPC)
  T/C: 93 % of control and 100 % of control

## O=C1NC(=O)C(=Cc2csc3ccccc23)C(=O)N1
[11]
  T/C: 94 % of control
[12]
  T/C: 96 % of control

## CN1C(=O)C2C=C(Cl)C1c1ccccc12 (stereo unspecified)
dose: 100.0 mg/kg/injection, schedule: Q01DX001 (ip), vehicle: other
  T/C: 102 % of control
dose: 200.0 mg/kg/injection, schedule: Q01DX001 (ip), vehicle: other
  T/C: 94 % of control
dose: 400.0 mg/kg/injection, schedule: Q01DX001 (ip), vehicle: other
  T/C: 110 % of control

## Cc1ccc(C)c2c1CC(C(=O)O)CC2C (stereo unspecified)
dose: 100.0 mg/kg/injection, schedule: Q04DX003 (ip), vehicle: saline
  T/C: 93 % of control
dose: 200.0 mg/kg/injection, schedule: Q04DX003 (ip), vehicle: saline
  T/C: 110 % of control

## COC1OC2COC(c3ccccc3)OC2C(OC(=S)SCc2ccccc2)C1OC(=O)c1ccccc1 (stereo unspecified)
dose: 25.0 mg/kg/injection, schedule: Q04DX002 (ip), vehicle: saline
  T/C: 100 % of control
dose: 50.0 mg/kg/injection, schedule: Q04DX002 (ip), vehicle: saline
  T/C: 88 % of control
dose: 100.0 mg/kg/injection, schedule: Q04DX002 (ip), vehicle: saline
  T/C: 98 % of control
[9]
  T/C: 86 % of control
[10]
  T/C: 90 % of control

## O=[N+]([O-])/C=C\c1cc2ccccc2c2ccccc12
[11]
  T/C: 94 % of control
[12]
  T/C: 94 % of control
dose: 400.0 mg/kg/injection, schedule: Q01DX001 (ip), vehicle: carboxymethylcellulose (CMC)
  T/C: 94 % of control
